Tested on: Helicobacter pylori
Experiment: Dual therapy of AGN 201904 with amoxicillin to treat H. pylori infection
Assay type: in vivo
Details: AGN 201904 with amoxicillin alone (dual therapy), compared to standard H. pylori infection therapies

SMILES: COc1ccc2c(c1)nc([S+]([O-])Cc1ncc(C)c(OC)c1C)n2S(=O)(=O)c1ccc(OCC(=O)O)cc1 (centres unmarked) [AGN 201904]
- H. pylori eradication rate: higher eradication rate
- H. pylori resistance: no H. pylori resistance

From patent publication US20180021319A1, “COMPOSITIONS AND METHODS FOR TREATING GASTROINTESTINAL INFECTIONS” (The Regents of the University of California, priority 2015, published 2018)
